{"source": "patent US7959743B2", "about": "“Lithium salts of fatty alcohol sulphates for cleaning boreholes, boring devices and borings” (priority 2004, dated 2011)", "system": "Corophium volutator", "settings": "in vivo"}
{"substance": "Soya polyol ethoxylate [V3]", "values": [{"measurement": "Corophium volutator 10 d, LC 50", "result": 1888, "unit": "mg/kg"}]}
{"substance": "C8-10 alkyl-1,5-glucoside [V4]", "values": [{"measurement": "Corophium volutator 10 d, LC 50", "result": "None after 433 mg/kg"}]}
